This assay addresses T1, fibronectin ED-B (Homo sapiens, UniProt P02751).
T1 construct: After transformation of pET28b vector carrying fibronectin ED-B into BL21 cells; His-tag (N); made in house; host or cells: E. coli BL21 (pET28b)
As to the kind of experiment: SPR (Biacore) affinity measurement to fibronectin ED-B. Type of assay: binding. How it is done:
Bipodal-peptide binder peptides specific to ED-B, VEGF or nAchR which were repetitively found in DNA sequencing were synthesized from Anigen Inc. (Korea). Affinity was measured using BlAcore X instrument (Biacore AB, Uppsala, Sweden). ED-B and nAchR were immobilized on streptavidin (SA) chip (Biacore) by injecting 2,000 RU biotinylated-EDB. VEGF was immobilized on CM5 chip (Biacore) using EDC/NHS. PBS (pH 7.4) was used as a running buffer. […].
. In addition to tryptophan zipper, GB1m3 and HP7 peptide as a type of other β-hairpin backbones were synthesized to contain N-terminal sequence (HCSSAV) and C-terminal sequence (IIRLEQ) of peptide 2 which is specifically bound to ED-B (Anigen, Korea). In other words, the sequence of bipodal-peptide binder in tryptophan zipper is […] (SEQ ID NO:21), and in GB1m3and HP7 are […] (SEQ ID NO:63) and […] (SEQ ID NO:64), respectively. Affinity of each peptide was measured using BIAcore X (Biacore AB, Uppsala, Sweden). […]
A leucine zipper motif as a structure stabilizing region instead of β-hairpin structure was synthesized to contain N-terminal sequence (HCSSAV) and C-terminal sequence (IIRLEQ) of peptide 2 which is specifically bound to ED-B, producing two peptides, […] […] Both peptides were formed as dimer, and their affinities were measured using BlAcore X (Biacore AB, Uppsala, Sweden). […]
On the technique in general: SPR reads the build-up and loss of mass on a sensor chip optically.

Residues, ends and D or L forms follow the SMILES beside them.

T1 sequence (P02751 1271-1359 limits assumed): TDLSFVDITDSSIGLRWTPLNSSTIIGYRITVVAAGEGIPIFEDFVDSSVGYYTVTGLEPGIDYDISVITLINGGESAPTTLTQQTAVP

`CC[C@H](C)[C@H](NC(=O)CNC(=O)[C@H](CCCCN)NC(=O)[C@H](Cc1c[nH]c2ccccc12)NC(=O)[C@@H](NC(=O)[C@H](Cc1c[nH]c2ccccc12)NC(=O)[C@H](CCCCN)NC(=O)CNC(=O)[C@H](CC(N)=O)NC(=O)[C@H](CCC(=O)O)NC(=O)[C@H](Cc1c[nH]c2ccccc12)NC(=O)[C@@H](NC(=O)[C@H](Cc1c[nH]c2ccccc12)NC(=O)[C@H](CO)NC(=O)CNC(=O)[C@@H](NC(=O)[C@H](C)NC(=O)[C@H](CO)NC(=O)[C@H](CO)NC(=O)[C@H](CS)NC(=O)[C@@H](N)Cc1c[nH]cn1)C(C)C)[C@@H](C)O)[C@@H](C)O)C(=O)N[C@H](C(=O)N[C@@H](CCCNC(=N)N)C(=O)N[C@@H](CC(C)C)C(=O)N[C@@H](CCC(=O)O)C(=O)N[C@@H](CCC(N)=O)C(=O)O)[C@@H](C)CC` [Peptide 2 (fibronectin ED-B)] (H-HCSSAVGSWTWENGKWTWKGIIRLEQ-OH; N-terminus and C-terminus assumed) yielded a Kd of 43 nM.

In general, Kd refers to the concentration at which binding is half-saturated.

These data come from US10131693B2, “Bipodal-peptide binder” (GWANGJU INSTITUTE OF SCIENCE AND TECHNOLOGY, priority 2008, dated 2018).
